Results: patent US10179774B2, “Synthesis of chirally purified substituted benzothiazole diamines” (priority 2007, dated 2019)

How the values were obtained:
rodents [1] = test system: rodents
rodents [2] = details: single oral dose, 'and above'; cited from earlier work
dogs = details: single oral dose, 'and above'; cited from earlier work
monkeys = details: single oral dose; cited from earlier work
humans = details: cited from earlier work

CCCNC1CCc2nc(N)sc2C1 (stereo not shown) [pramipexole]
equivalent human dose of the rodent lethal dose (rodents [1]; human equivalent of 70-105 mg/kg in rodents): 7 to 12 mg/kg | equivalent human dose of the rodent lethal dose for a 70 kg individual (rodents [1]; rodents, in vivo): 500 to 850 mg | doses at which death occurred (rodents [2]): 70 to 105 mg/kg | dose at which vomiting occurred (dogs): ≥ 0.0007 mg/kg | dose at which major excitation was displayed (monkeys): 3.5 mg/kg | initial single dose not tolerated (humans; human subjects, initial single dose): greater than 0.20 mg | dose shown to cause somnolence (humans; humans, 'as low as'): 1.5 mg
